Experimental data taken from patent publication US7090853B2, “Noscapine derivatives as adjuvant compositions and methods of use thereof” (Emory University, priority 1999, dated 2006).
Entries after “also recorded” stand apart in the source; their conditions may differ. Marks after values point to notes of the source that are not given here.

How the values were obtained:
[1] = tested on: HL-60 cells; experiment: Apoptosis of HL-60 cells, DAPI staining of nuclear chromatin; format: cell-based; settings: for Apoptic Cell Percentage: 24 hours
Procedure: Morphological changes in the nuclear chromatin of HL-60 cells undergoing apoptosis were detected by staining with 4′,6-diamidino-2-phenylindole (DAPI). In brief, 0.5×10^6 to 3×10^6 cells were fixed with 4% glutaraledebyde, 0.2% Triton x-100, in PBS and incubated at room temperature for 10 min., then centrifuged at 1000×g for 10 min., resuspended in 20 μl 0.1% DAPI ethanol. Following 15 min, incubation at room temperature, at 10 μl aliquot was placed on a glass slide, and 400 cells per slide were scored for the incidence of apoptotic chromatin changes with a fluorescence microscope.

[2] = target: bovine brain tubulin (Bos taurus, UniProt P81947+Q6B856); experiment: Microtubule assembly, turbidity at 350 nm; format: biochemical; settings: 20 μM noscapine, G-PEM buffer, 37° C.
bovine brain tubulin, sequence (P81947 whole entry): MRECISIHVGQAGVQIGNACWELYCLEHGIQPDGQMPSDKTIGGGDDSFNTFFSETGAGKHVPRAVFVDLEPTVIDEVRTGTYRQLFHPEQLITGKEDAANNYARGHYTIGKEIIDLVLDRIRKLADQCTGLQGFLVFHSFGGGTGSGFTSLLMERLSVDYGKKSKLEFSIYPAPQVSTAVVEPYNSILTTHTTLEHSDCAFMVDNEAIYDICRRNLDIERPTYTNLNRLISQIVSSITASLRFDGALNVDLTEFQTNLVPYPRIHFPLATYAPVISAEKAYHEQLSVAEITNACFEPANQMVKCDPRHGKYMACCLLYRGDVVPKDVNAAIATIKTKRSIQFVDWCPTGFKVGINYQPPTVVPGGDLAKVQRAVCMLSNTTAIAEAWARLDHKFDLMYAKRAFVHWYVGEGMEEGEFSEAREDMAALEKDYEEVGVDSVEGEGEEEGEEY
bovine brain tubulin, sequence (Q6B856 whole entry): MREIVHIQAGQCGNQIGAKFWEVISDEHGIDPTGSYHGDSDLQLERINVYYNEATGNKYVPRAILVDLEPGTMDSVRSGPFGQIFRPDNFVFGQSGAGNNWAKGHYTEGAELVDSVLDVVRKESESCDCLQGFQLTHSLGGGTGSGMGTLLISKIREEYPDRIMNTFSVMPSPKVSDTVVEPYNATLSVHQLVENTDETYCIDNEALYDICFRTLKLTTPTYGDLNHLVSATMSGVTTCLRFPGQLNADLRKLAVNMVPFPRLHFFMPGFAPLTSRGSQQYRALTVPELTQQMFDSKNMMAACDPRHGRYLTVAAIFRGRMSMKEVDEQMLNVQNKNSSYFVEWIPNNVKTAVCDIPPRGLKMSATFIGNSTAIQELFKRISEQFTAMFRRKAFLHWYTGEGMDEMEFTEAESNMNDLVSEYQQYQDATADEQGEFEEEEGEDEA
Procedure: Phosphocellulose purified bovine brain tubulin was employed throughout these biophysical experiments. Fluorescence titration for determining binding constants was performed according to Peyrot, V. et al., Biochemistry 31, 11125 (1992). […], at room temperature, 2 μM tubulin in 100 mM PIPES, 2 mM EGTA, 1 mM MgCl2 was excited at 278 nm, and the fluorescence emission spectra were recorded with bandwidths […]. The fluorescence emission intensity of noscapine at this excitation wavelength was negligible and at the concentration of noscapine used it gave no appreciable inner filter effect. The concentration of noscapine was raised in increments of 0.5 μM, until the decrease in the fluorescence intensity was saturated. The value of the dissociation constant and the number of sites were obtained from Scatchard plots using the equation, r/[L]free=n/K^d−r/Kd, where r is the ratio of the concentration of bound ligand to the total protein concentration and n is the number of binding sites. […] Microtubule assembly was recorded on a spectrophotometer with thermocontroler, The cuvettes (0.4 cm path) containing 100 mM PIPES, 2 mM EGTA, 1 mM MgCl2 and 1 mM GTP (G-PEM buffer), and 20 μM noscapine/DMSO were kept at room temperature before addition of tubulin and shifting to 37° C. […] The assembly was monitored by measuring the changes in turbidity at […]. intervals. […]

[3] = tested on: lymphocyte cells; experiment: Apoptosis: oligonucleosomal DNA fragmentation, DAPI staining and nick end labeling; format: cell-based; settings: 20 μM Noscapine, 0 to 24 hr
Procedure: Oligonucleosomal fragmentation of genomic DNA was determined according to Walton, M. I. et. al., Cancer. Res. 53, 1853 (1993). An aliquot of 3.3×10^6 cells in 10 ml medium was incubated with 20 μM Noscapine ([…] DMSO solution) for different time periods ranging from 0 to 24 hr. At the end of incubation, cells were pelleted and washed twice with ice cold PBS, and lysed in 250 μl 1% (v/v) NP 40 detergent containing 0.5 mg/ml proteinase K in PBS solution on ice for 60 min. Samples were centrifuged, and the supernatants were removed and incubated with 5 μl 10 mg/ml RNase A at 37° C. for 40 min. An aliquot of 1 ml anhydrous ethanol was added, tubes were placed at −20° C. for 20 min., then centrifuged to pellet DNA. After the samples were dry, the same amount of DNA (10 μg) was electrophoresed at 80V for 3 hr. through a 2% agarose gel containing ethidium bromide in TAB buffer. DNA bands were visualized under […]. […]
Morphological changes in the nuclear chromatin of cells undergoing apoptosis were detected by staining with 4′,6-diamidino-2-phenylindole (DAPI). […] Following 15 min. incubation at room temperature, a 10 μl aliquot was placed on a glass slide, and 400 cells per slide were scored for the incidence of apoptotic chromatin changes with a fluorescence microscope. […] After the slides were rinsed with PBS for another 3 times, coverslips were mounted and analyzed with a light microscope.

[4] = tested on: solid lymphoid tumors; experiment: Apoptosis in solid lymphoid tumors induced in mice (H&E microscopy); format: in vivo; settings: Haemotoxline and Eosine stained cells
[5] = Histology and general toxicity in noscapine-treated mice; format: in vivo, B6 mice
Procedure: FIGS. 3A–3I show B6 mice were injected subcutaneously with 2×10^6 E.G7-OVA tumor cells and after three days half of the mice were treated continuously with 1.5 or 3.0 mg noscapine/ml of drinking water. All of the untreated mice developed tumors and were euthanized after three weeks. […] Normal B6 mice (A–C) and mice treated for 3 months with noscapine (D–F) were euthanized.
FIGS. 4A–4D show B6 mice were treated with 1.5 mg noscapine/ml in their drinking water or acidified water, as a negative control. One week later mice were injected with OVA in CFA. Mice were sacrificed two weeks later. […] Thus, Noscapine had no detectable toxic effect on lymphoid cells that are proliferating in response to immunization. […] The response of the gut to Noscapine is one of mild irritation. […]

[6] = tested on: human bladder tumors; settings: nude mice; cited from earlier work

## COc1ccc2c(c1OC)C(=O)O[C@@H]2[C@H]1c2c(cc3c(c2OC)OCO3)CCN1C [Noscapine]
[1]; 20 μM in DMSO, two trials, result for each trial shown
  Apoptic Cell Percentage: 30.17† %
[1]; 50 μM in DMSO
  Apoptic Cell Percentage: 27%
[1]; DAPI staining
  Initiation of apoptosis: initiate apoptosis
[2]
  tubulin assembly (absorbance at 350 nm): promotes tubulin assembly
[3]
  DNA degradation (gel electrophoresis of fragmented genomic DNA, staining): progressive DNA degradation with increasing time of noscapine treatment
[4]
  apoptotic morphologies in tumor cells: many cells in noscapine treated mice with apoptotic morphologies
[5]; 1.5 mg noscapine/ml drinking water vs acidified water
  histology of small intestine: mild edema of the villi and goblet cell hyperplasia; also recorded: edema, increased frequency of goblet cells, and prominent crypt cells
[5]; 1.5 mg noscapine/ml drinking water vs acidified water, immunized with OVA in CFA
  histology of spleen / lymph nodes: no alterations from control mice; also recorded: no significant differences
[5]; 3.0 mg dose of noscapine
  liver inflammation: few small areas of inflammation
[5]; mouse, in vivo
  histological evidence of toxicity to the kidney, liver, or heart: no significant histological evidence of toxicity
[5]; noscapine in drinking water
  health, body weight and appearance: healthy and had normal weights and appearance; also recorded: healthy and of the same weight as the control mice
[5]; noscapine in drinking water vs control mice
  number of mitotic figures in the crypts of the small intestine: approximately equal
[5]; treated for 3 months with noscapine in drinking water, H & E
  histology of heart, kidney and liver: no significant differences
[6]
  regression of human bladder tumors: caused regression
